26 compounds from patent publication US10035790B2, “RORγ modulators” (BRISTOL-MYERS SQUIBB COMPANY, priority 2012, dated 2018) can be followed below.

The first assay has as its target T1, ligand binding domain of human RORγ (A262-S507) (Homo sapiens, UniProt P51449).
T1 construct: made in house; host or cells: E. coli
T1 sequence (P51449 262-507): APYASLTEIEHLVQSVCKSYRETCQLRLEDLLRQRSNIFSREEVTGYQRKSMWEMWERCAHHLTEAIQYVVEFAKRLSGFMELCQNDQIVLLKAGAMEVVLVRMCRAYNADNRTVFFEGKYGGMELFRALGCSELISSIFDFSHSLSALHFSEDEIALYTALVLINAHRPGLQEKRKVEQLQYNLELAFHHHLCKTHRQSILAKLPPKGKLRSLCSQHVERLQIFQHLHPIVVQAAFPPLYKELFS
Nature of the assay: General RORγ SPA binding assay (competition with [3H]25-hydroxycholesterol). As to conditions: IC50, RORγ SPA binding assay, inhibition of [3H]25-hydroxycholesterol binding. The method, boiled down:
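Step one: compound meets 50 nM nickel-purified, His-tagged protein from E. coli for 15 min at room temperature (PBS, 0.5% fatty acid free BSA). Step two: radioligand is added for another 15 min. Step three: SPA beads are added for 30 min before scintillation reading and IC50 fitting.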
The IC50 is the midpoint of a concentration-inhibition curve. `CC(O)(COc1ccnc(C(F)(F)F)n1)c1cnc(N)nc1C1CCN(C(=O)Oc2c(F)cccc2F)CC1` (centres unmarked) [Compound D46, 2,6-Difluorophenyl 4-[2-amino-5-(1-hydroxy-1-methyl-2-{[2-(trifluoromethyl)pyrimidin-4-yl]oxy}ethyl)pyrimidin-4-yl]piperidine-1-carboxylate]: the IC50 was found to be 6.3 nM.

`Cc1nc(C)c(C(=O)NCc2ccnc(C(F)(F)F)n2)c(C2CCN(C(=O)Oc3c(F)cccc3F)CC2)n1` [Compound A123, 2,6-Difluorophenyl 4-{2,6-dimethyl-5-[({[2-(trifluoromethyl)pyrimidin-4-yl]methyl}amino)carbonyl]pyrimidin-4-yl}piperidine-1-carboxylate] came in with an IC50 of 5.4 nM.

The same assay, now with this note: RORγ SPA binding assay, inhibition of [3H]25-hydroxycholesterol binding; read-out: IC50.
Regarding `Cc1ncc(C(O)(COc2cccc(C(F)(F)F)n2)C(=O)O)c(C2CCN(C(=O)Nc3c(F)cccc3F)CC2)n1` (centres unmarked) [Compound N44, 2-[4-(1-{[(2,6-Difluorophenyl)amino]carbonyl}piperidin-4-yl)-2-methylpyrimidin-5-yl]-2-hydroxy-3-{[6-(trifluoromethyl)pyridin-2-yl]oxy}propanoic acid], the IC50 worked out at 899 nM.

Turning to `COc1nc(C)c(-c2nnc(-c3cccc(C(F)(F)F)n3)o2)c(C2CCN(C(=O)Nc3c(F)cccc3F)CC2)n1` [Compound C60, N-(2,6-Difluorophenyl)-4-[6-methyl-2-(methyloxy)-5-{5-[6-(trifluoromethyl)pyridin-2-yl]-1,3,4-oxadiazol-2-yl}pyrimidin-4-yl]piperidine-1-carboxamide], the IC50 stood at 204 nM.

In the case of `[2H]C([2H])c1nc(C)c(-c2nnc(-c3ccnc(C(F)(F)F)n3)o2)c(C2CCN(C(=O)C([2H])c3c(F)cccc3F)CC2)n1` (centres unmarked) [Compound C37, 4-{1-[(2,6-Difluorophenyl)acetyl-2-d]piperidin-4-yl}-2-methyl-d2-6-methyl-5-{5-[2-(trifluoromethyl)pyrimidin-4-yl]-1,3,4-oxadiazol-2-yl}pyrimidine], the IC50 was 22.1 nM.

In the case of `Cc1nc(C)c(/C=N/Oc2cccc(C(F)(F)F)c2)c(C2CCN(C(=O)Nc3c(F)cccc3F)CC2)n1` [Compound B46, N-(2,6-Difluorophenyl)-4-{2,6-dimethyl-5-[(E)-({[3-(trifluoromethyl)phenyl]oxy}imino)methyl]pyrimidin-4-yl}piperidine-1-carboxamide], the half-maximal inhibitory concentration (IC50) stood at 106 nM.

In the case of `CSc1ncc(C(=O)COc2ccnc(C(F)(F)F)n2)c(C2CCN(C(=O)Nc3c(F)cccc3F)CC2)n1` [Compound M2, N-(2,6-Difluorophenyl)-4-[2-(methylthio)-5-({[2-(trifluoromethyl)pyrimidin-4-yl]oxy}acetyl)pyrimidin-4-yl]piperidine-1-carboxamide], the IC50 came to 18.6 nM.

For the compound `Cc1ncc(/C(CO)=N\Oc2ccnc(C(F)(F)F)n2)c(C2CCN(C(=O)Cc3c(F)cccc3F)CC2)n1` [Compound B26, (E)-2-(2,6-difluorophenyl)-1-(4-(5-(2-hydroxy-1-(((2-(trifluoromethyl)pyrimidin-4-yl)oxy)imino)ethyl)-2-methylpyrimidin-4-yl)piperidin-1-yl)ethanone], the IC50 worked out at 95 nM.

Regarding `Nc1ncc(C(O)CNc2ccnc(C(F)(F)F)n2)c(C2CCN(C(=O)Nc3c(F)cccc3F)CC2)n1` (centres unmarked) [Compound N12, 4-[2-amino-5-(1-hydroxy-2-{[2-(trifluoromethyl)pyrimidin-4-yl]amino}ethyl)pyrimidin-4-yl]-N-(2,6-difluorophenyl)piperidine-1-carboxamide], the IC50 was 69.5 nM.

For the compound `Cc1ncc(/C=N/Oc2cccc(C(F)(F)F)c2)c(C2CCN(C(=O)Cc3c(F)cccc3F)CC2)n1` [Compound B30, (E)-4-(1-(2-(2,6-Difluorophenyl)acetyl)piperidin-4-yl)-2-methylpyrimidine-5-carbaldehyde O-3-(trifluoromethyl)phenyl oxime], the IC50 came out at 9.7 nM.

In the case of `Cc1cc(C)cc(CNC(=O)c2cnc(C)nc2C2CCN(C(=O)Cc3ccccc3C(F)(F)F)CC2)c1` [Compound A5, N-(3,5-dimethylbenzyl)-2-methyl-4-(1-(2-(2-(trifluoromethyl)phenyl)acetyl)piperidin-4-yl)pyrimidine-5-carboxamide], the half-inhibitory concentration (IC50) was 8.9 nM.

Regarding `Cc1nc(C2CCN(C(=O)Cc3c(F)cccc3F)CC2)c(C(=O)NCc2cccc(C(F)(F)F)n2)c(=O)n1C` [Compound I7, 4-(1-(2-(2,6-Difluorophenyl)acetyl)piperidin-4-yl)-1,2-dimethyl-6-oxo-N-((6-(trifluoromethyl)pyridin-2-yl)methyl)-1,6-dihydropyrimidine-5-carboxamide], the IC50 was 654 nM.

For `Cc1cc(C)cc(CNC(=O)c2cnc(C)nc2C2CCN(C(=O)Cc3ccccc3)CC2)c1` [Compound A25, N-(3,5-dimethylbenzyl)-2-methyl-4-(1-(2-phenylacetyl)piperidin-4-yl) pyrimidine-5-carboxamide], the 50% inhibitory concentration (IC50) is 267 nM.

On to `Cc1nc(C2CCN(C(=O)Cc3c(F)cccc3F)CC2)c(C(=O)NCc2cccc(Cl)c2)c(=O)[nH]1` [Compound I4, N-(3-chlorobenzyl)-4-(1-(2-(2,6-difluorophenyl)acetyl)piperidin-4-yl)-2-methyl-6-oxo-1,6-dihydropyrimidine-5-carboxamide], for which the IC50 worked out at 10.9 nM.

Regarding `Cc1cc(C)cc(COC(C)(CO)c2cnc(C)nc2C2CCN(C(=O)Cc3c(F)cccc3F)CC2)c1` (centres unmarked) [Compound E4, 2-(2,6-difluorophenyl)-1-(4-(5-(2-((3,5-dimethylbenzyl)oxy)-1-hydroxypropan-2-yl)-2-methylpyrimidin-4-yl)piperidin-1-yl)ethanone], the IC50 was determined as 16.7 nM.

As to `C/C(=N/Oc1cccc(Cl)c1)c1cnc(C)nc1C1CCN(C(=O)Cc2c(F)cccc2F)CC1` [Compound B6, (Z)-1-(4-(5-(1-((3-chlorophenoxy)imino)ethyl)-2-methylpyrimidin-4-yl)piperidin-1-yl)-2-(2,6-difluorophenyl)ethanone], the 50% inhibitory concentration (IC50) is 1930 nM.

Turning to `C/C(=N\Oc1ccnc(C(F)(F)F)n1)c1cnc(N)nc1C1CCN(C(=O)Nc2c(F)cccc2F)CC1` [Compound B54, 4-{2-Amino-5-[(1E)-N-{[2-(trifluoromethyl)pyrimidin-4-yl]oxy}ethanimidoyl]pyrimidin-4-yl}-N-(2,6-difluorophenyl)piperidine-1-carboxamide], the IC50 turned out to be 168 nM.

As to `Cc1ncc(C(C)(O)CNc2ccnc(C(F)(F)F)n2)c(C2CCN(C(=O)Nc3c(F)cccc3F)CC2)n1` (centres unmarked) [Compound D17, N-(2,6-Difluorophenyl)-4-[5-(1-hydroxy-1-methyl-2-{[2-(trifluoromethyl)pyrimidin-4-yl]amino}ethyl)-2-methylpyrimidin-4-yl]piperidine-1-carboxamide], the IC50 amounted to 88.8 nM.

`C/C(=N/Oc1cc(C)cc(C)c1)c1cnc(C)nc1C1CCN(C(=O)Cc2c(F)cccc2F)CC1` [Compound B10, (Z)-2-(2,6-difluorophenyl)-1-(4-(5-(1-((3,5-dimethylphenoxy)imino)ethyl)-2-methylpyrimidin-4-yl)piperidin-1-yl)ethanone]: the IC50 was determined as 1670 nM.

On to `Cc1nc(C)c(C(=O)NNc2cccc(Cl)c2)c(C2CCN(C(=O)Cc3c(F)cccc3F)CC2)n1` [Compound G4, N′-(3-chlorophenyl)-4-(1-(2-(2,6-difluorophenyl)acetyl)piperidin-4-yl)-2,6-dimethylpyrimidine-5-carbohydrazide], for which the IC50 amounted to 12.1 nM.

`Cc1cc(C)cc(CNC(=O)c2cnc(C)nc2C2CCN(C(=O)C(F)(F)c3ccccc3)CC2)c1` [Compound A117, 4-{1-[Difluoro(phenyl)acetyl]piperidin-4-yl}-N-[(3,5-dimethylphenyl)methyl]-2-methylpyrimidine-5-carboxamide]: the IC50 came to 253 nM.

With `Cc1ncc(C(C)(O)COc2cccc(Cl)c2)c(C2CCN(C(=O)Cc3c(F)cccc3F)CC2)n1` (centres unmarked) [Compound D12, 1-(4-(5-(1-(3-chlorophenoxy)-2-hydroxypropan-2-yl)-2-methylpyrimidin-4-yl)piperidin-1-yl)-2-(2,6-difluorophenyl)ethanone], the IC50 is 6.2 nM.

Regarding `Cc1nc(N)nc(C2CCN(C(=O)Oc3ccc(F)cc3F)CC2)c1-c1nnc(-c2ccnc(C(F)(F)F)n2)o1` [Compound C56, 2,4-Difluorophenyl 4-(2-amino-6-methyl-5-{5-[2-(trifluoromethyl)pyrimidin-4-yl]-1,3,4-oxadiazol-2-yl}pyrimidin-4-yl)piperidine-1-carboxylate], the IC50 turned out to be 24.7 nM.

Regarding `CC(O)(COc1ccnc(C(F)(F)F)n1)c1cnc(NC2CC2)nc1C1CCN(C(=O)Nc2c(F)cccc2F)CC1` (centres unmarked) [Compound D34, 4-[2-(Cyclopropylamino)-5-(1-hydroxy-1-methyl-2-{[2-(trifluoromethyl)pyrimidin-4-yl]oxy}ethyl)pyrimidin-4-yl]-N-(2,6-difluorophenyl)piperidine-1-carboxamide], the IC50 is 15 nM.

For `Cc1cc(C)cc(CNC(=O)c2cnc(C)nc2C2CCN(C(=O)Cc3ccc(F)c(F)c3)CC2)c1` [Compound A34, 4-(1-(2-(3,4-difluorophenyl)acetyl)piperidin-4-yl)-N-(3,5-dimethylbenzyl)-2-methylpyrimidine-5-carboxamide], the concentration for half-maximal inhibition (IC50) worked out at 2690 nM.

As to `Cc1cc(C)cc(CNC(=O)c2cnc(C)nc2C2CCN(C(=O)[C@H](C)c3ccccc3)CC2)c1` [Compound A16, (R)-N-(3,5-dimethylbenzyl)-2-methyl-4-(1-(2-phenylpropanoyl)piperidin-4-yl)pyrimidine-5-carboxamide], the half-inhibitory concentration (IC50) is 89 nM.
